Test results as given in patent US20180207228A1, “PEPTIDE COMBINATIONS AND USES THEREOF FOR TREATING GRASS ALLERGY” (ALK-Abelló A/S, priority 2015, published 2018).
Where no end group is shown, it is not given here.

Columns and labels:
[1] = system: allergen specific T cells; test: T cell proliferation assay (72 h) on donor derived T cell lines (TCL02/TCL03); format: cell-based, human; conditions: reference peptides of WO2010/089554, proliferation only
Summary of the method: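 CD8-depleted PBMCs from grass-allergic donors stimulated with natural grass allergen mix (nPhl p 1 0.5 μg/ml) to raise T cell lines; restimulated with irradiated APCs, allergens or PHA-P (0.5 μg/ml) plus rIL-2. Proliferation to overlapping 20-mer and selected 15-mer grass peptides tested with TCL02 (day 24) or TCL03 (day 34).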

[2] = system: grass pollen allergic donor derived T cell lines; test: Dose response titration in T cell proliferation assay; format: cell-based, human
Protocol: The dose-response relationship was tested by measuring the percentage of donor response (i.e. the percentage of donor coverage) in concentrations of 2.0, 0.1, 0.005 and 0.00025 μg/ml for the peptide combinations and in concentrations of 2.0, 0.2, 0.02 and 0.002 μg/ml for single peptides. The donor response was determined using T cell proliferation data as described in Example 3.
Relative magnitude value for a peptide or a peptide combination was calculated as percentage of highest T cell response to an allergen or a mix, by the same donor. In this way, allergen or peptide combination with highest magnitude of T cell response gets a value of 100 and T cell response magnitude of remaining peptides/peptide combinations are normalized or calculated relative to 100, for example Relative magnitude=100*(T cell response magnitude of peptide or combination/Highest T cell response in a donor). Relative magnitude were calculated mainly on Phl p 1. For donors non reactive to Phl p 1, Phl p 5 was used as reference
The donors were selected by seeking to maximize the HLA class II diversity in the donor cohort.
For peptide combinations, two set-ups were used:
A) Concentrations of 2.0, 0.1, 0.005 and 0.00025 μg/ml were tested on a set of T cell lines derived from 9 grass pollen allergic donors (same experiment as the data shown in FIG. 7b.).
B) Concentrations of 2.0, 0.066, 0.0022 and 0.00007 μg/ml were used on a set of T cell lines derived from 18 grass pollen allergic donors (same set as the donors used for testing of single peptides as described above).
Relative magnitude value for a peptide or a peptide combination was calculated as percentage of highest T cell response to an allergen or a mix, by the same donor. In this way, allergen or peptide combination with highest magnitude of T cell response gets a value of 100 and T cell response magnitude of remaining peptides/peptide combinations are normalized or calculated relative to 100, for example Relative magnitude=100*(T cell response magnitude of peptide or combination/Highest T cell response in a donor). […]

[3] = Peptide solubility by visual inspection; format: physicochemical
Protocol: Water (pH 3-5) • 2. 250 mM D-Mannitol and 25 mM sodium acetate, pH 4.5 • 3. 250 mM D-Mannitol and 25 mM sodium phosphate, pH 7.0 • 4. […] Water (pH 3-5) • 2. 250 mM D-Mannitol and 25 mM sodium acetate, pH 4.5 • 3. 250 mM D-Mannitol and 25 mM sodium phosphate, pH 7.0 • 4. […] A subset of the peptides was selected as candidate peptides for a final peptide mixture. […] During the solubility studies the peptide-containing solutions were inspected visually before and after filtration for turbidity, and presence of particles/aggregates. In addition, presence of turbidity/particles/aggregates was also detected by optical density (OD) or absorbance of filtered material, but might also be detected by size-exclusion chromatography. Furthermore, Sub-visual particles may also be detected by dynamic light scattering (DLS) analysis on filtered and non-filtered peptide containing solutions. Samples were furthermore subjected to centrifugation to allow for the possible visual inspection of pelleted material.

[4] = system: grass allergic donor derived T cell lines (TCL-02 DK-2); test: Cross-reactivity of homologue peptides, proliferation on TCL02-DK2 (Study XR1); format: cell-based, human; conditions: 2 μg/ml, TCL02-DK2, 21 donors
Protocol: To measure the experimental cross-reactivity the proliferation assay of Example 3 was carried out on 21 grass allergic donors (TCL02-DK2). […] Cross-reactivity to Phleum pratense peptides with either close (Lolium perenne (Lol p)) or distant (Phalaris aquatica (Pha a), Cynodon dactylon (Cyn d)) species was experimentally investigated.
For analysing the cross-reactivity data, it was investigated if a donor responds to both native and homologue peptide, XY correlation plots were made where the donor responses to native peptides were plotted versus the donor responses to homologues. […] If less than five donors were responding to the parent peptides, then the data was considered to be in-conclusive, and were thus labelled with “-”. For some of the peptides the analysis was further supported by performing a Spearman r-Non Parametric test (data not shown).
Further the magnitude of T cell response from a parent peptide as defined herein and homologue response were plotted in a XY plot by using GraphPad Prism 6.
To measure the experimental cross-reactivity, the proliferation assay of Example 3 was carried out on 21 grass pollen allergic donors (TCL02-DK2, Study XR1) and 20 grass pollen allergic donors (TCL03−DK1+DK2, Study XR2). […] In Study XR1, Cross-reactivity to Phleum pratense peptides with either close (Lolium perenne-Lol p) or distant ([…]-Pha a, Cynodon dactylon-Cyn d) species was experimentally investigated. In Study XR1, 67 homologue peptides corresponding to 41 native Phleum pratense peptides were investigated together with the 41 Phleum pratense peptides at a concentration of 2 μg/ml. Similarly, study XR2 was carried out on 20 grass pollen allergic donors where donor derived TCL-03 lines were used to investigate Phleum pratense cross-reactivity to Poa pratensis (Poa p), Dactylis glomerata (Dac g), Festuca pratensis (Fes p), Paspalum notatum (Pas n), Sorghum halepense (Sor h), Lolium perenne (Lol p), Phalaris aquatica (Pha a) and Cynodon dactylon (Cyn d).

[5] = system: grass pollen allergic donor derived TCL-03 lines; test: Extended cross-reactivity study, proliferation on TCL03 DK1+DK2 (Study XR2), scoring; format: cell-based, human; conditions: study XR2; for Cross-reactivity score, Dac g: homologue from Dac g; for Cross-reactivity score, Lol p: homologue from Lol p; for Cross-reactivity sum: scores of all species added; for Cross-reactivity/species: sum divided by the number of species measured
[6] = Extended solubility and short term stability study (visual, U-HPLC recovery, DLS, 90LS, UV-VIS, sum of scores); conditions: for solubility: pH 4.5
Protocol: For that purpose, the peptides were provided as acetate salts (produced by Innovagen® at a >10 mg scale of manufacturing). To take into account batch-to-batch variations, some peptides were tested from other batches of the manufacturer Innovagen®, as well as from another manufacturer (Almac) and from in-house production. Solubility experiments were performed on peptide in solution in concentrations ranging from 0.5 mg/mL to 3 mg/mL (dry matter)—with the following solvents: • Water • Acetate buffer, pH 4.5 (25 mM sodium acetate containing 250 mM D-Mannitol) • Phosphate buffer, pH 7.0 (25 mM sodium phosphate containing 250 mM D-Mannitol) • Glycine buffer, pH 8.5 (25 mM glycine containing 250 mM D-Mannitol)
The solubility of the peptides was initially investigated by visual inspection and U-HPLC recovery. Visual inspection included assessment of turbidity and presence of particles/aggregates of each peptide solution before and after centrifugation as well as visual inspection of pelleted material. The visual inspection were reported as “clear solution”, “very small precipitation only visible with a magnifier”, “precipitation visible/turbid solution” or “more precipitation/turbid solution”. Filtration of peptide solutions were conducted using syringe based filters containing a polyethersulfone (PES) membrane chemistry and a pore size of 0.2 μm. The amount of the peptide in the supernatant of a filtered sample was determined using U-HPLC with reverse phase chromatography and recovery were determined as described in Example 5.
Peptide solutions were investigated at a time point of 1 hour after production, but were also repeated at later time point (e.g. 24. 48 or 96 hours) to investigate the stability of the peptides.
Peptide solutions were investigated to determine the presence of turbidity/particles/aggregates by use of optical density (OD) and change in UV-VIS absorbance at a wavelength of 320 nm, of the filtrate. […] In addition or as an alternative, the amount of the peptide in the supernatant of a filtered sample was determined using U-HPLC as described above, with the exception that the recovery was determined by dividing the peak area of the filtered sample in relation to the peak area in the original solution prior to filtration. See also Example 5 for further details regarding UV-VIS, and recovery measured by U-HPLC.
The peptides were scored in relation to the outcome of the above mentioned tests: For each peptide in a given buffer and at a given concentration, a sum of test scores was calculated and the sum used to rank the peptides according to solubility: • 1. […] DLS peak 1 number 3 nm gave a score of 1, 3-10 nm gave a score of 2, 10-100 nm gave a score of 3, >100 nm gave a score of 4. • 5. 90LS at 400 nm: Intensity <450 gave a score of 1, <800 gave a score of 2, >800 gave a score of 3. • 6. UV-VIS change in absorbance at 320 nm within 24 hours: 0.01 gave a score of 1, ≤0.05 gave a score of 2, 0.0.2 gave a score of 3 and >0.2 gave a score of 4.

## CC[C@H](C)[C@H](NC(=O)[C@H](C)NC(=O)[C@H](CCCCN)NC(=O)[C@@H](NC(=O)[C@H](CC(C)C)NC(=O)[C@H](C)NC(=O)[C@H](C)NC(=O)[C@H](CCC(=O)O)NC(=O)[C@H](Cc1ccccc1)NC(=O)[C@@H](NC(=O)[C@H](C)NC(=O)[C@H](Cc1ccc(O)cc1)NC(=O)[C@H](CCCCN)NC(=O)[C@@H](NC(=O)[C@H](CCC(=O)O)NC(=O)[C@@H]1CCCN1C(=O)[C@@H](N)CCCCN)C(C)C)C(C)C)[C@@H](C)O)C(=O)N[C@H](C(=O)O)[C@@H](C)O [peptide 142]
[1]
  average relative magnitude: around 8
[2]; 0.002 μg/ml, 25 donor derived T cell lines
  donor coverage, dose response of single peptides: ~35%
[2]; single peptides, FIG. 21
  average relative magnitude calculated over all donors: in the same range

## GSDPKKLVLNIKYTRPGDSL-OH [peptide 217]
[3]
  solubility, 1st round of solubility screening: soluble
[3]; 3 mg/mL, acetate salt, non-filtered, 250 mM D-Mannitol and 25 mM sodium acetate, pH 4.5
  Visual inspection after 60 min pH 4.5: + particles
[3]; 3 mg/mL, acetate salt, non-filtered, 250 mM D-Mannitol and 25 mM sodium acetate, pH 4.5, after centrifugation
  Visual inspection after centrifugation pH 4.5: Ok
[3]; 3 mg/mL, acetate salt, non-filtered, 250 mM D-Mannitol and 25 mM sodium phosphate, pH 7.0
  Visual inspection after 60 min pH 7: particles +
[3]; 3 mg/mL, acetate salt, non-filtered, 250 mM D-Mannitol and 25 mM sodium phosphate, pH 7.0, after centrifugation
  Visual inspection after centrifugation pH 7: ++
[4]
  experimental cross-reactivity: showed cross-reactivity
[5]; score 0 to 7
  Cross-reactivity score, Dac g: 1
  Cross-reactivity score, Lol p: 5
[5]
  Cross-reactivity sum: 6
  Cross-reactivity/species: 3
[6]
  solubility in all the test samples (concentrations and pH tested), all solubility tests: good solubility
  solubility in aqueous solutions and short-term stability: sufficiently soluble
  solubility: acceptable solubility

## TKKGNVWEVKSSKPLVGPFN-OH [peptide 219]
[4]
  experimental cross-reactivity: showed cross-reactivity

## YHFDLSGHAFGAMAKKGDEQ-OH [peptide 205]
[3]
  solubility, 1st round of solubility screening: soluble
[4]
  experimental cross-reactivity: showed cross-reactivity
[5]; homologue from Cyn d, score 0 to 7
  Cross-reactivity score, Cyn d: 2
[5]; score 0 to 7
  Cross-reactivity score, Dac g: 7
  Cross-reactivity score, Lol p: 7
[5]; homologue from Fes p, score 0 to 7
  Cross-reactivity score, Fes p: 7
[5]; homologue from Pha a, score 0 to 7
  Cross-reactivity score, Pha a: 6
[5]; homologue from Poa p, score 0 to 7
  Cross-reactivity score, Poa p: 3
[5]; homologue from Sor h, score 0 to 7
  Cross-reactivity score, Sor h: 7
[5]
  Cross-reactivity sum: 39
  Cross-reactivity/species: 5
[6]
  solubility in all the test samples (concentrations and pH tested), all solubility tests: good solubility
  solubility in aqueous solutions and short-term stability: sufficiently soluble
  solubility: acceptable solubility
